Experimental data: patent publication US11291671B2, “Solid drug implants for intracochlear delivery of therapeutics for the treatment of Otic disorders” (O-Ray Pharma, Inc., priority 2012, dated 2022)

Legend:
patients = settings: cited from earlier work
guinea pig cochleae [1] = experiment: Intracochlear fluticasone proprionate for otoprotection of cisplatin dependent hearing loss, click ABR threshold; format: in vivo; settings: control ear (no implant), day 28, after cisplatin; baseline day 14 23.9±2.3 dB; P≤0.0001
Excerpt: Surgery: Albino guinea pigs were used for the single dose intracochlear implantation experiment. The guinea pigs received a single implant in one of their ears, and the other ear was used as internal control. Under general anesthesia, a postauricular incision was made over the bulla in the experimental ear. A small hole was drilled through the bulla using a posterior approach. The ear was positioned with the round window facing horizontally and superiorly. A 32-gauge needle was used to puncture the round window and the particle was put in contact with the perilymph in the scala tympani. A blood drop was placed over the round window injection site to avoid leakage of perilymphatic fluids and a suture was used to close the wound. Auditory Measurements; see FIGS. 5A and 5B: Animals were anesthetized for auditory testing. […] Lower ABR LS Means reading indicates better hearing. Error bars indicate Standard Error. Study Design: Particles were created and implanted into guinea pig cochleae as described in Examples 1-2. The study design is as follows: • Each animal: one ear implanted with extended release fluticasone particle (“implant ear”), other ear served as internal control (“control ear”). • Hearing was assessed via click (broad frequency) ABRs and DPOAE

guinea pig cochleae [2] = experiment: Intracochlear fluticasone proprionate for otoprotection of cisplatin dependent hearing loss, DPOAE; format: in vivo; settings: 14 days after cisplatin application, no implant
Excerpt: Surgery: Albino guinea pigs were used for the single dose intracochlear implantation experiment. The guinea pigs received a single implant in one of their ears, and the other ear was used as internal control. Under general anesthesia, a postauricular incision was made over the bulla in the experimental ear. A small hole was drilled through the bulla using a posterior approach. The ear was positioned with the round window facing horizontally and superiorly. A 32-gauge needle was used to puncture the round window and the particle was put in contact with the perilymph in the scala tympani. A blood drop was placed over the round window injection site to avoid leakage of perilymphatic fluids and a suture was used to close the wound. DPOAE (2f1-f2) Input/output functions were recorded. Response amplitude was recorded as a function of L2 (L1-L2=10 dB); primaries incremented together in 5 dB steps (from 20 to 80 dB SPL) spanning the frequency range f2=5.6-45.2 kHz (f2/f1=1.2). […] Higher DPOAE reading indicates better hearing. Error bars indicate Standard Error. […] The study design is as follows: • Each animal: one ear implanted with extended release fluticasone particle (“implant ear”), other ear served as internal control (“control ear”). • Hearing was assessed via click (broad frequency) ABRs and DPOAE

[H]/N=C(/N)N[C@H]1[C@H](O)[C@@H](O)[C@H](O[C@@H]2O[C@@H](C)[C@](O)(C=O)[C@H]2O[C@@H]2O[C@@H](CO)[C@H](O)[C@@H](O)[C@@H]2NC)[C@@H](N/C(N)=N\[H])[C@@H]1O [streptomycin]
Patients displaying some vestibular impairment (patients; one gram daily for 60 to 120 days): 25% | Incidence of vestibular impairment (patients; two grams per day): 75%

N.N.[Cl][Pt][Cl] [cisplatin, cis-diammine-dichloroplatinum(II)]
ABR threshold, control ears following cisplatin treatment at day 28 (guinea pig cochleae [1]): 40.7±2.5 dB | DPOAE responses, control ears (guinea pig cochleae [2]): absent
